Measured values: patent US20100298141A1, “SUBSTITUTED PYRIDINE N-OXIDE HERBICIDES” (E. I. DU PONT DE NEMOURS AND COMPANY, priority 2007, published 2010)

Tests used:
Assay in all cases: Test F preemergence test
Italian ryegrass = type: in vivo, Lolium multiflorum; details: scale 0 to 100
How it was run: (§1)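 Visual ratings relative to controls, taken after 14 to 21 days in a greenhouse. Test chemicals, formulated in a surfactant-containing non-phytotoxic solvent mixture, were applied preemergence to sown seeds or postemergence to sugarcane plants.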

field bindweed = type: in vivo, Convolvulus arvensis; details: scale 0 to 100
How it was run: as §1

green foxtail = type: in vivo, Setaria viridis; details: scale 0 to 100
How it was run: as §1

mustard = type: in vivo, Brassica nigra; details: scale 0 to 100
How it was run: as §1

large crabgrass = type: in vivo, Digitaria sanguinalis; details: Preemergence, scale 0 to 100
How it was run: as §1

common chickweed = type: in vivo, Stellaria media; details: scale 0 to 100
How it was run: as §1

guineagrass = type: in vivo, Panicum maximum; details: scale 0 to 100
How it was run: as §1

annual bluegrass = type: in vivo, Poa annua; details: scale 0 to 100
How it was run: as §1

common purslane = type: in vivo, Portulaca oleracea; details: scale 0 to 100
How it was run: as §1

prickly sida = type: in vivo, Sida spinosa; details: scale 0 to 100
How it was run: as §1

common ragweed = type: in vivo, Ambrosia elation; details: scale 0 to 100
How it was run: as §1

southern sandbur = type: in vivo, Cenchrus echinatus; details: scale 0 to 100
How it was run: as §1

naked crabgrass = type: in vivo, Digitaria nuda; details: scale 0 to 100
How it was run: as §1

pitted morningglory = type: in vivo, Ipomoea lacunosa; details: scale 0 to 100
How it was run: as §1

Surinam grass = type: in vivo, Brachiaria decumbens; details: scale 0 to 100
How it was run: as §1

bermudagrass = type: in vivo, Cynodon dactylon; details: scale 0 to 100
How it was run: as §1

common mallow = type: in vivo, Malva sylvestris; details: scale 0 to 100
How it was run: as §1

barnyardgrass = type: in vivo, Echinochloa crus-galli; details: scale 0 to 100
How it was run: as §1

quackgrass = type: in vivo, Elytrigia repens; details: scale 0 to 100
How it was run: as §1

Cn1nc(C(F)(F)F)c(CS(=O)(=O)c2cccc[n+]2[O-])c1OC(F)F [Compound 4]
90: Ragweed plant response rating (common ragweed; 62 g ai/ha, Preemergence) | Plant response rating, Sandbur (southern sandbur; 16 g ai/ha, preemergence)
98: Black Mustard plant response rating (mustard; 62 g ai/ha, Preemergence) | Plant response rating, Black Mustard (mustard; Preemergence, 31 g ai/ha) | Plant response rating, Bermudagrass (bermudagrass; Preemergence, 16 g ai/ha)
50: Plant response rating, Guineagrass (guineagrass; 8 g ai/ha, preemergence)
20: Plant response rating, Black Mustard (mustard; Preemergence, 16 g ai/ha) | Plant response rating, Bluegrass (annual bluegrass; Preemergence, 31 g ai/ha) | Purslane plant response rating (common purslane; 62 g ai/ha, Preemergence) | Plant response rating, Purslane (common purslane; Preemergence, 31 g ai/ha) | Plant response rating, Surinam Grass (Surinam grass; 16 g ai/ha, preemergence) | Plant response rating, Bermudagrass (bermudagrass; 8 g ai/ha, preemergence)
80: Plant response rating, Guineagrass (guineagrass; Preemergence, 16 g ai/ha) | Barnyardgrass plant response rating (barnyardgrass; 62 g ai/ha, Preemergence) | Plant response rating, Barnyardgrass (barnyardgrass; Preemergence, 31 g ai/ha)
65: Ryegrass, Italian plant response rating (Italian ryegrass; 62 g ai/ha, Preemergence) | Plant response rating, Ryegrass, Italian (Italian ryegrass; Preemergence, 31 g ai/ha) | Plant response rating, Ragweed (common ragweed; Preemergence, 16 g ai/ha) | Plant response rating, Barnyardgrass (barnyardgrass; Preemergence, 16 g ai/ha)
25: Plant response rating, Sandbur (southern sandbur; 8 g ai/ha, preemergence)
75: Bluegrass plant response rating (annual bluegrass; 62 g ai/ha, Preemergence) | Plant response rating, Ragweed (common ragweed; Preemergence, 31 g ai/ha) | Quackgrass plant response rating (quackgrass; 62 g ai/ha, Preemergence)
95: Foxtail, Green plant response rating (green foxtail; 62 g ai/ha, Preemergence)
10: Plant response rating, Barnyardgrass (barnyardgrass; 8 g ai/ha, preemergence)
35: Plant response rating, Foxtail, Green (green foxtail; Preemergence, 16 g ai/ha) | Plant response rating, Quackgrass (quackgrass; Preemergence, 31 g ai/ha)
100: Crabgrass, Large plant response rating (large crabgrass; 62 g ai/ha) | Chickweed plant response rating (common chickweed; 62 g ai/ha, Preemergence) | Plant response rating, Chickweed (common chickweed; Preemergence, 16 g ai/ha) | Plant response rating, Chickweed (common chickweed; Preemergence, 31 g ai/ha) | Guineagrass plant response rating (guineagrass; 62 g ai/ha, Preemergence) | Plant response rating, Guineagrass (guineagrass; Preemergence, 31 g ai/ha) | Sandbur plant response rating (southern sandbur; 62 g ai/ha, Preemergence) | Plant response rating, Sandbur (southern sandbur; Preemergence, 31 g ai/ha) | Crabgrass, Naked plant response rating (naked crabgrass; 62 g ai/ha, Preemergence) | Plant response rating, Crabgrass, Naked (naked crabgrass; Preemergence, 31 g ai/ha) | Plant response rating, Surinam Grass (Surinam grass; Preemergence, 31 g ai/ha) | Bermudagrass plant response rating (bermudagrass; 62 g ai/ha, Preemergence) | Plant response rating, Bermudagrass (bermudagrass; Preemergence, 31 g ai/ha)
70: Plant response rating, Foxtail, Green (green foxtail; Preemergence, 31 g ai/ha) | Plant response rating, Crabgrass, Large (large crabgrass; 16 g ai/ha) | Plant response rating, Crabgrass, Large (large crabgrass; 31 g ai/ha) | Plant response rating, Crabgrass, Naked (naked crabgrass; 8 g ai/ha, preemergence) | Plant response rating, Crabgrass, Naked (naked crabgrass; Preemergence, 16 g ai/ha)
0: Plant response rating, Ryegrass, Italian (Italian ryegrass; 8 g ai/ha, preemergence) | Plant response rating, Ryegrass, Italian (Italian ryegrass; Preemergence, 16 g ai/ha) | Plant response rating, Field Bindweed (field bindweed; 8 g ai/ha, preemergence) | Field Bindweed plant response rating (field bindweed; 62 g ai/ha, Preemergence) | Plant response rating, Field Bindweed (field bindweed; Preemergence, 16 g ai/ha) | Plant response rating, Field Bindweed (field bindweed; Preemergence, 31 g ai/ha) | Plant response rating, Foxtail, Green (green foxtail; 8 g ai/ha, preemergence) | Plant response rating, Black Mustard (mustard; 8 g ai/ha, preemergence) | Plant response rating, Bluegrass (annual bluegrass; 8 g ai/ha, preemergence) | Plant response rating, Bluegrass (annual bluegrass; Preemergence, 16 g ai/ha) | Plant response rating, Prickly Sida (prickly sida; 8 g ai/ha, preemergence) | Prickly Sida plant response rating (prickly sida; 62 g ai/ha, Preemergence) | Plant response rating, Prickly Sida (prickly sida; Preemergence, 16 g ai/ha) | Plant response rating, Prickly Sida (prickly sida; Preemergence, 31 g ai/ha) | Plant response rating, Ragweed (common ragweed; 8 g ai/ha, preemergence) | Plant response rating, Morningglory (pitted morningglory; 8 g ai/ha, preemergence) | Morningglory plant response rating (pitted morningglory; 62 g ai/ha, Preemergence) | Plant response rating, Morningglory (pitted morningglory; Preemergence, 16 g ai/ha) | Plant response rating, Morningglory (pitted morningglory; Preemergence, 31 g ai/ha) | Plant response rating, Surinam Grass (Surinam grass; 8 g ai/ha, preemergence) | Plant response rating, Mallow (common mallow; 8 g ai/ha, preemergence) | Mallow plant response rating (common mallow; 62 g ai/ha, Preemergence) | Plant response rating, Mallow (common mallow; Preemergence, 16 g ai/ha) | Plant response rating, Mallow (common mallow; Preemergence, 31 g ai/ha) | Plant response rating, Quackgrass (quackgrass; 8 g ai/ha, preemergence) | Plant response rating, Quackgrass (quackgrass; Preemergence, 16 g ai/ha)
15: Plant response rating, Purslane (common purslane; 8 g ai/ha, preemergence) | Plant response rating, Purslane (common purslane; Preemergence, 16 g ai/ha)
60: Plant response rating, Chickweed (common chickweed; 8 g ai/ha, preemergence)
